In US20110105457A1, “HETEROCYCLIC COMPOUND HAVING INHIBITORY ACTIVITY ON PI3K” (SHIONOGI & CO., LTD., priority 2008, published 2011):
pIC50, pKi: −log10 of the molar value. Values belong to the compound of their own block, whether it stands above or below them.

Legend:
[1] = system: AKT phosphorylation (Ser473) in THP-1 cells; assay: AKT phosphorylation inhibitory activity in MCP-1 stimulated THP-1 cells (ELISA); assay type: cell-based, human; settings: MCP-1 stimulation, compound concentration not given
Procedure: (1) The AKT phosphorylation inhibitory activity of a compound was evaluated according to the following procedure. (2) Human monocyte-like cell line THP-1 was washed with RPMI-1640 media, incubated in the presence of 5% CO2 at 37 degrees Celsius for 3 hours, washed with Hank's balanced salt solution (HBSS), adjusted to a cell concentration of 6.6×10^6/mL, and then used in an experiment. (3) 30 μL of the cell suspension and 60 μL of each compound solution comprising 0.2% DMSO/HBSS are mixed, and then preincubated at 37 degrees Celsius for 5 minutes. 30 μL of HBSS comprising 4 μg/mL of MCP-1 was added thereto, and then incubated for 30 seconds at 37 degrees Celsius. (4) 30 μL of 20 mM Tris-HCl (pH 7.5)/150 mM NaCl/1 mM Na2EDTA/1 mM EGTA/1% Triton/2.5 mM sodium pyrophosphate/1 mM β-glycerophosphate/1 mM Na3VO4/1 μg/ml leupeptin/50 nM APMSF was added thereto to dissolve cells. (5) The amount of AKT phosphorylation in a cell solution was measured by ELISA method. (6) To a micro well plate to which anti-phospho-Akt (Ser473) antibody (clone 193H12, derived from a rabbit) was solid-phased was added 100 μL of a prepared cell solution, incubated for 2 hours at 37 degrees Celsius, and then washed four times with Phosphate Buffered Saline/0.05% Tween-20. (7) An anti-AKT1 antibody (clone 2H10, derived from a mouse) was added thereto, incubated for 1 hour at 37 degrees Celsius, washed similarly, and then reacted with an HRP-labeled anti-mouse IgG antibody. (8) After incubating at 37 degrees Celsius for 30 minutes and then washing similarly, 100 μL of TMB (3,3′,5,5″-tetramethylbenzidine) was added thereto, followed by reacting at room temperature for 30 minutes. (9) 100 μL of 1 mol/L sulfuric acid was added to quench the color reaction, and then the absorbance at 450 nm was measured. (10) A series of diluted cell solutions of a positive control (a sample in the absence of a compound) were used as a calibration curve, the amount of AKT phosphorylation in a sample in the absence of MCP-1 was defined as 0% activity to calculate an inhibition ratio.

[2] = Metabolic stability test, pooled human liver microsome; assay type: in vitro ADME; settings: human liver microsome 0.5 mg protein/mL, NADPH, 37 degrees Celsius, 30 minutes
Procedure: After a subject compound was reacted for a certain time using a pooled human liver microsome commercially available, a reacted sample and an unreacted sample are compared to calculate a survival ratio, and then the degree of metabolism in the liver was evaluated.
0.2 mL of a buffer solution (50 mmol/L of Tris-HCl in pH 7.4, 150 mmol/L of potassium chloride, and 10 mmol/L of magnesium chloride) containing a human liver microsome of 0.5 mg protein/mL was reacted in the presence of 1 mmol/L NADPH at 37 degrees Celsius for 0 or 30 minutes (oxidative reaction). After reacting, 50 μL of the reaction solution was added to 100 μL of a solution of methanol/acetonitrile (1/1(v/v)), mixed, and then centrifuged at 3000 rpm for 15 minutes. A test compound in the supernatant was quantitated with LC/MS/MS. An amount of the compound remained at a reaction time of 0 minute was defined as 100%, and, based on that, an amount of the test compound remained after the reaction was calculated.

[3] = Solubility test; assay type: physicochemical; settings: 25 °C, fassgf or other biorelevant, kinetic from dmso stock, artificial intestinal juice pH 6.8, 1% DMSO, 25 degrees Celsius
Procedure: 10 mM compound solution was prepared using DMSO, and then 6 μL of the compound solution was added to 594 μL of artificial intestinal juice in pH 6.8 (to 250 mL of 0.2 mol/L potassium dihydrogen phosphate reagent solution was added 118 mL of 0.2 mol/L NaOH reagent solution and water to provide a final volume of 1000 mL). After standing at 25 degrees Celsius for 16 hours, the mixed solution was filtrated with suction. The filtrate was diluted twice with methanol/water (1/1), and then a concentration in the filtration was measured with HPLC or LC/MS/MS by the absolute calibration method.

[4] = target: T1, PI-3 kinase γ (Homo sapiens, UniProt P48736); assay: PI3Kγ inhibitory activity, PI3-kinase HTRF assay (Millipore); assay type: biochemical; settings: 0.5 h; compound 50 μM; read-out: Inhibition ratio % (50 μM)
T1 sequence (P48736 whole entry, the tested form may be a part): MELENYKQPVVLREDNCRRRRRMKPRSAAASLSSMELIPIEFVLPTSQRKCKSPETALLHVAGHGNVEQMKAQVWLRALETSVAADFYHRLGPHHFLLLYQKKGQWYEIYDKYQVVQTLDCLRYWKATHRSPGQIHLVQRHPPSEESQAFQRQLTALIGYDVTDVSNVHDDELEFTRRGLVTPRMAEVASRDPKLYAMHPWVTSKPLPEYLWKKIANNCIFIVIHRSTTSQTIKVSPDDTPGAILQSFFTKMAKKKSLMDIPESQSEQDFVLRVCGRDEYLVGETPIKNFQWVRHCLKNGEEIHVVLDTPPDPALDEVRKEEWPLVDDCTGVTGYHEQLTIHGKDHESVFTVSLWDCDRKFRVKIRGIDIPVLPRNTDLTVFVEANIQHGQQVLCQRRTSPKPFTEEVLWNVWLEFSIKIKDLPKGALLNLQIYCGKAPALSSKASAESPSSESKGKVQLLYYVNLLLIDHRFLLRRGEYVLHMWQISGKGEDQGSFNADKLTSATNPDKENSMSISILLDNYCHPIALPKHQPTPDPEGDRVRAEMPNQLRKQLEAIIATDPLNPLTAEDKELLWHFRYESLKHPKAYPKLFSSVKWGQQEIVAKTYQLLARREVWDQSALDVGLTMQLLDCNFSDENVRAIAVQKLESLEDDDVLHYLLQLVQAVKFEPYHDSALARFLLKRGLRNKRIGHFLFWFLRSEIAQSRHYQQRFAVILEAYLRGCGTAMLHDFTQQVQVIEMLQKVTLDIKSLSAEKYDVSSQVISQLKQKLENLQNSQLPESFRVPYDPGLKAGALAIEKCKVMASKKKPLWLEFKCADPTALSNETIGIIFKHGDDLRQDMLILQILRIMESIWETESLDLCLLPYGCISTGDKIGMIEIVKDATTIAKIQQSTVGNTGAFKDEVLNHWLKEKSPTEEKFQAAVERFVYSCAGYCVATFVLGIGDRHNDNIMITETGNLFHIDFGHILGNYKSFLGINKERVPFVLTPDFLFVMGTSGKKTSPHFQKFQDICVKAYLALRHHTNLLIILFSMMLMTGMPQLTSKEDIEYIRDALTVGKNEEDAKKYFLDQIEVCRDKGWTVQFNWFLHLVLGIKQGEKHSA
Method in brief: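 HTRF assay: PI3Kγ preincubated 10 min with compound and PIP2 substrate in MgCl2/DTT buffer, then reaction started with ATP and run 30 min at room temperature before EDTA/biotin-PIP3 quench. Read after 18 h with Eu anti-GST/GST-PH domain/APC-streptavidin as 665/620 nm ratio; inhibition relative to no-compound (100%) and no-enzyme (0%) wells.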

[5] = target: T1, PI-3 kinase γ; assay: PI3Kγ inhibitory activity (Ki value), HTRF assay; assay type: biochemical; settings: calculated from IC50, test ATP 10 μM
Procedure: The PI3Kγ inhibitory activity (Ki value) of a compound was evaluated according to the following procedure.
5 μL of a compound solution comprising 10% DMSO and 200 μM of a compound was changed to 5 μL of a compound solution comprising 10% DMSO and 200, 64, 20, 6.4, 2, 0.64, or 0.20 μM of the compound (optionally, this is diluted to a lower concentration). By a method similar to the method for measuring PI3Kγ inhibitory activity, inhibition ratios were measured in the presence of the compound of 50, 16, 5, 1.6, 0.5, 0.16, and 0.05 μM (optionally, a lower concentration), and then an IC50 value was calculated by a logistic approximation method, or the linear regression method using two concentrations that across 50% inhibition. Separately, 5 μL of 40 μM ATP/10 mM MgCl2/5 mM DTT at the time of the start of a reaction in the absence of a compound was changed to 5 μL of 80, 40, 20, 10, 5, 2.5, 1.25, or 0.625 μM ATP/10 mM MgCl2/5 mM DTT, and then ratios of HTRF was measured by a similar method. The value of subtracting an HTRF ratio at each ATP concentration from an HTRF ratio in the absence of PI-3 kinase γ was defined as a value of multiplying reaction rate v by a constant to calculate the Michaelis-Menten constant Km by the Lineweaver-Burk plot method. A Ki value of a compound was calculated by the following formula.

[6] = target: T2, CYP1A2 (Homo sapiens, UniProt P05177); assay: CYP inhibition test, pooled human liver microsome, O-de-ethylation of 7-ethoxyresorufin; assay type: in vitro ADME
T2 construct: Using a pooled human liver microsome commercially available; from tissue; host or cells: pooled human liver microsomes
T2 sequence (P05177 1-516): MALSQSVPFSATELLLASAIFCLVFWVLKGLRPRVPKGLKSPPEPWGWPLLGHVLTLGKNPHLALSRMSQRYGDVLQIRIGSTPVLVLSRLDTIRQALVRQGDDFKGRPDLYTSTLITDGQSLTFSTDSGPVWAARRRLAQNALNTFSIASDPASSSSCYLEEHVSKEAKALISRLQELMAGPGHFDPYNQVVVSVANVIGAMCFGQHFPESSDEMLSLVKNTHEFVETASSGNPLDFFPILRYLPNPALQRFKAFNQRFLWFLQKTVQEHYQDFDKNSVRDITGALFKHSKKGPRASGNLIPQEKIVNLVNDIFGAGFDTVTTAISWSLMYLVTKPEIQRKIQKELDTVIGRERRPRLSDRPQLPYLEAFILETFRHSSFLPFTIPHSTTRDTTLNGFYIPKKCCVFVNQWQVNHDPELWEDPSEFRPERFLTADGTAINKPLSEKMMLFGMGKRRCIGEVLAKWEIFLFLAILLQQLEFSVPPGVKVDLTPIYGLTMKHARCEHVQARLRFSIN
Procedure: (§1) Using a pooled human liver microsome commercially available, and selecting as indexes O-de-ethylation of 7-ethoxyresorufin (CYP1A2), methyl-hydroxylation of tolbutamide (CYP2C9), 4′-hydroxylation of mephenyloin (CYP2C19), O-demethylation of dextromethorphan (CYP2D6), and hydroxylation of terfenadine (CYP3A4), which are typical substrate metabolic reactions of human main CYP5 molecular species (CYP1A2, 2C9, 2C19, 2D6, and 3A4), it was evaluated in what degree the amount of each metabolite produced was inhibited by a test compound.
(§2) The reaction condition is as follows: substrate, 0.5 μmol/L of ethoxyresorufin (CYP1A2), 100 μmol/L of tolbutamide (CYP2C9), 50 μmol/L of S-mephenyloin (CYP2C19), 5 μmol/L of dextromethorphan (CYP2D6), and 1 μmol/L of terfenadine (CYP3A4); reaction time, 15 minutes; reaction temperature, 37 degrees Celsius; enzyme, pooled human liver microsome 0.2 mg protein/mL; test drug concentration, 1, 5, 10, and 20 μmol/L (4 points).
(§3) To a 96-well plate was added five kinds of substrates, a human liver microsome, and a test drug in 50 mM Hepes buffer solution as a reaction solution in the aforementioned constitution. A coenzyme NADPH was added to start a metabolic reaction, which is an index. After reacting at 37 degrees Celsius for 15 minutes, a solution of methanol/acetonitrile (1/1 (v/v)) was added to quench the reaction. After centrifugation at 3000 rpm for 15 minutes, resorufine (CYP1A2 metabolite) in the supernatant was quantitated with a fluorescence multilabel counter, and hydroxylated tolbutamide (CYP2C9 metabolite), 4′-hydroxylated mephenyloin (CYP2C19 metabolite), […] (CYP2D6 metabolite), terfenadine in alcohol form (CYP3A4 metabolite) were quantitated with LC/MS/MS.
(§4) The case that only DMSO, a solvent which dissolved a drug, was added to a reaction system was defined as a control (100%). The remaining activity (%) at each concentration in cases that a test drug solution was added was calculated, and then IC50 was calculated with a concentration and an inhibition ratio by an inverse estimation using a logistic model.

[7] = target: T3, CYP2C19 (Homo sapiens, UniProt P33261); assay: CYP inhibition test, pooled human liver microsome, 4′-hydroxylation of mephenyloin; assay type: in vitro ADME; settings: S-mephenyloin
T3 construct: Using a pooled human liver microsome commercially available; from tissue; host or cells: pooled human liver microsomes
T3 sequence (P33261 whole entry): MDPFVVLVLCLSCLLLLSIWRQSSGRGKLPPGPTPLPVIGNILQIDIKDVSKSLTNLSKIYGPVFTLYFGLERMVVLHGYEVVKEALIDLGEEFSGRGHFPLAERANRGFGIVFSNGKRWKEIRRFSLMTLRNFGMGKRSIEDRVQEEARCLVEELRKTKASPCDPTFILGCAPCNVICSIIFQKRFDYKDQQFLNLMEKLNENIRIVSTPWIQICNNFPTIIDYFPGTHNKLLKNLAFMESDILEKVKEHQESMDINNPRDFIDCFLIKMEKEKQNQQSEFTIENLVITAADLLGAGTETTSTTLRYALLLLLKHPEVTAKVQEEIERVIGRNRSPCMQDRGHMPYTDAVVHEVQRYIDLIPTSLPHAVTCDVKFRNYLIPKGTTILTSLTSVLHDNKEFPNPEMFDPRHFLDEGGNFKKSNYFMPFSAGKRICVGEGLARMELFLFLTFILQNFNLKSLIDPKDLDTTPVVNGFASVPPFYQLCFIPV
Procedure: as §1, §2, §3, §4

[8] = target: T4, CYP2C9 (Homo sapiens, UniProt P11712); assay: CYP inhibition test, pooled human liver microsome, methyl-hydroxylation of tolbutamide; assay type: in vitro ADME
T4 construct: Using a pooled human liver microsome commercially available; from tissue; host or cells: pooled human liver microsomes
T4 sequence (P11712 whole entry): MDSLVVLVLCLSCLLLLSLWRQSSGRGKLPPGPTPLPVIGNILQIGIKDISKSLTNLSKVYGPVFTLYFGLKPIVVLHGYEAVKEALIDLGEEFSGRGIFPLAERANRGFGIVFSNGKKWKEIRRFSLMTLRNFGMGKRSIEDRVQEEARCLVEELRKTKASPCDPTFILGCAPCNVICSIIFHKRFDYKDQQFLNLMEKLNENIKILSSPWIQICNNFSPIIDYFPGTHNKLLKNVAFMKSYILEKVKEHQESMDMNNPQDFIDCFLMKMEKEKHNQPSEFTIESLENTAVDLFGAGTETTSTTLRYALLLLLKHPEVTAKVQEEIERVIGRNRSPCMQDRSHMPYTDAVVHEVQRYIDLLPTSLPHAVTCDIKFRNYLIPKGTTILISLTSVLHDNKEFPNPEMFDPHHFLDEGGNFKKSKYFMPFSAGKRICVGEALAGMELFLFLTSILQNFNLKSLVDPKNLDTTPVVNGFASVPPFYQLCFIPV
Procedure: as §1, §2, §3, §4

[9] = target: T5, CYP3A4 (Homo sapiens, UniProt P08684); assay: CYP inhibition test, pooled human liver microsome, hydroxylation of terfenadine; assay type: in vitro ADME
T5 construct: Using a pooled human liver microsome commercially available; from tissue; host or cells: pooled human liver microsomes
T5 sequence (P08684 whole entry): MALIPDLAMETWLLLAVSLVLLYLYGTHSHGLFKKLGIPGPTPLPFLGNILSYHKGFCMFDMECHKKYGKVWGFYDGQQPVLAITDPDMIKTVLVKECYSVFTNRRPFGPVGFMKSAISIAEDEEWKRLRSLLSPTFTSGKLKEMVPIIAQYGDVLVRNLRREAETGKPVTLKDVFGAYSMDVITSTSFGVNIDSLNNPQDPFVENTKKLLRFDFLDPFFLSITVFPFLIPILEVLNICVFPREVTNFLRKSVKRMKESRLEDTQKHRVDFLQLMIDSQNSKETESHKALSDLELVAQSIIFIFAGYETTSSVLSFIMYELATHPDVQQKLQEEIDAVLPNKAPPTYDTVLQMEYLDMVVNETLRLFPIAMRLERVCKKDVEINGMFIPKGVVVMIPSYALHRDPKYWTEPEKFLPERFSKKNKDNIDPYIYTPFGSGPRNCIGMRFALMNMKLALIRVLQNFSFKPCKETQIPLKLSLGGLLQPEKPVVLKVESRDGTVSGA
Procedure: as §1, §2, §3, §4

[10] = target: T6, CYP2D6 (Homo sapiens, UniProt P10635); assay: CYP inhibition test, pooled human liver microsome, O-demethylation of dextromethorphan; assay type: in vitro ADME
T6 construct: Using a pooled human liver microsome commercially available; from tissue; host or cells: pooled human liver microsomes
T6 sequence (P10635 whole entry): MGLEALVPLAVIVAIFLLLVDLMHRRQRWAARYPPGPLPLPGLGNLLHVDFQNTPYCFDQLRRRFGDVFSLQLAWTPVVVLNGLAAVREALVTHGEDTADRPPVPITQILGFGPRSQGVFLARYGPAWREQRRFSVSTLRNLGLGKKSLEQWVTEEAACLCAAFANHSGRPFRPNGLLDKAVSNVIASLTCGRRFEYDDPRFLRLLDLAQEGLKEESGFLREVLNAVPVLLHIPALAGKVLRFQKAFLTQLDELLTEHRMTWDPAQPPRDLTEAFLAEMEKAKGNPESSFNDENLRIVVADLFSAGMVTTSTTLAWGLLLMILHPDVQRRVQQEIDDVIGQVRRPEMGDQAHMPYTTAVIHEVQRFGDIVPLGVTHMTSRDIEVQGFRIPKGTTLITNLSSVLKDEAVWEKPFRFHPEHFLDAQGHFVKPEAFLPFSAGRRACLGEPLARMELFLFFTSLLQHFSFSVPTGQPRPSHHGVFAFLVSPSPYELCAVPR
Procedure: as §1, §2, §3, §4

pIC50 [6]: < 4.70 | pIC50 [7]: < 4.70 | pIC50 [8]: < 4.70 | pIC50 [9]: < 4.70 | pIC50 [10]: < 4.70 | inhibition at 50 µM [4]: 61%
SMILES: COc1cccc(-c2ccc3nc(NC(=O)NCc4cc(=O)[nH]o4)cn3n2)c1 [Compound I-267]

inhibition at 50 µM [4]: 88%
SMILES: COc1cccc(-c2ccc3nc(NC(=O)NO)cn3n2)c1 [Compound I-274]
AKT phosphorylation inhibition ratio [1]: 82.6%

pIC50 [6]: < 4.70 | pIC50 [7]: < 4.70 | solubility at 16 h [3]: > 50 µM | pIC50 [8]: < 4.70 | pIC50 [9]: < 4.70 | pIC50 [10]: < 4.70 | inhibition at 50 µM [4]: 74%
SMILES: COc1cccc(-c2ccc3nc(NC(=O)NCc4nn[nH]n4)cn3n2)c1 [Compound I-292]

The remaining lines, values behind:

SMILES: CNC(=O)Nc1cn2nc(-c3cccnc3)ccc2n1 [Compound I-37]
AKT phosphorylation inhibition ratio [1]: 86.7% | Amount of the test compound remained after the reaction [2]: 96.8% | solubility at 16 h [3]: > 50 µM | inhibition at 50 µM [4]: 86%

SMILES: CCNC(=O)Nc1cn2nc(-c3cccc(OC)c3)ccc2n1 [Compound I-119]
AKT phosphorylation inhibition ratio [1]: 92.9% | inhibition at 50 µM [4]: 96%

SMILES: COc1cccc(-c2ccc3nc(NC(=O)NCC(=O)O)cn3n2)c1 [Compound I-120]
solubility at 16 h [3]: > 50 µM | inhibition at 50 µM [4]: 85% | pKi [5]: 7.34

SMILES: CNC(=O)Nc1cn2nc(-c3cncc(OC)c3)ccc2n1 [Compound I-144]
solubility at 16 h [3]: > 50 µM | inhibition at 50 µM [4]: 83% | pKi [5]: 7.28

SMILES: COc1cncc(-c2ccc3nc(NC(=O)NCC(=O)O)cn3n2)c1 [Compound I-224]
pIC50 [6]: < 4.70 | pIC50 [7]: < 4.70 | solubility at 16 h [3]: > 50 µM | pIC50 [8]: < 4.70 | pIC50 [9]: < 4.70 | pIC50 [10]: < 4.70 | inhibition at 50 µM [4]: 89% | pKi [5]: 7.13

SMILES: COc1cccc(-c2ccc3nc(NC(=O)NCCC(=O)O)cn3n2)c1 [Compound I-260]
pIC50 [6]: < 4.70 | pIC50 [7]: < 4.70 | pIC50 [8]: < 4.70 | pIC50 [9]: < 4.70 | pIC50 [10]: < 4.70 | inhibition at 50 µM [4]: 73%

SMILES: COc1cccc(-c2ccc3nc(NC(=O)NCCCS(=O)(=O)c4ccccc4)cn3n2)c1 [Compound I-266]
AKT phosphorylation inhibition ratio [1]: 90.1%
